# Experimental data published in ChEMBL document CHEMBL3638961, “Oxazine derivatives” (2015).
# pIC50: −log10 of the molar value.
# Biological target: Beta-secretase 1 (Homo sapiens, UniProt P56817)
# Assay: Inhitbition Assay: 48.5 µL of substrate peptide solution (Biotin-XSEVNLDAEFRHDSGC-Eu: X=ε-amino-n-capronic acid, Eu=Europium cryptate) was added to each well of 96-hole half-area plate (a black plate: Costar), and after addition of 0.5 µl of the test compound (dissolved in N,N'-dimethyl formaldehyde) and 1 µl of Recombinant human BACE1(R&D Systems), the reaction mixture was incubated at 30° C. for 3 hours. The substrate peptide was synthesized by reacting Cryptate TBPCOOH mono SMP (CIS bio international) with Biotin-XSEVNLDAEFRHDSGC (Peptide Institute, Inc.). The final concentrations of the substrate peptide and Recombinant human BACE1 were adjusted to 18 nmol/L and 7.4 nmol/L, respectively, and the reaction was performed in sodium acetate buffer (50 mmol/L sodium acetate, pH 5.0, 0.008% Triton X-100).After the incubation for reaction, 50 µl of 8.0 µg/ml Streptavidin-XL665 (CIS bio international) dissolved in phosphate buffer.
# Beta-secretase 1, sequence (P56817 whole entry): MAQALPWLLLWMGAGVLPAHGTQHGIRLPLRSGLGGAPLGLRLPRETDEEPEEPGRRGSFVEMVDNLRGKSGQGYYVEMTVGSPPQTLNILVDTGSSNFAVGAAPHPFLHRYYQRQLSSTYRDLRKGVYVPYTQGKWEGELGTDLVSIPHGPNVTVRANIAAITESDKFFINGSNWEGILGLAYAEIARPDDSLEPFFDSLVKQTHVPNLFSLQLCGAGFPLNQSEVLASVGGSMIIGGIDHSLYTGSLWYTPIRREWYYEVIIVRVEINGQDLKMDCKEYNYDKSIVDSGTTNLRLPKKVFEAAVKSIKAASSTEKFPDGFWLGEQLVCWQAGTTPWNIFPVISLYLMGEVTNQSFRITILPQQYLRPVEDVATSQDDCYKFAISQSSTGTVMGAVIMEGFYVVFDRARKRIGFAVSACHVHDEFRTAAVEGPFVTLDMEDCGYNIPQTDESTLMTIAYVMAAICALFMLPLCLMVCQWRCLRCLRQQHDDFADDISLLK
row,Compound,pIC50
1,CC1=C[C@@](C)(c2cc(NC(=O)c3ccc(C(F)(F)F)cn3)ccc2F)N=C(N)O1,> 4.52
2,COc1cnc(C(=O)Nc2ccc(F)c([C@]3(C)C=C(C)OC(N)=N3)c2)cn1,> 4.52
3,CC1=C[C@@](C)(c2cc(NC(=O)c3ncc(C#N)cc3F)ccc2F)N=C(N)O1,> 4.52

# Next, values leading:
row,pIC50,Compound
1,> 4.52,CC1=C[C@@](C)(c2cc(NC(=O)c3ccc(Cl)cn3)ccc2F)N=C(N)O1
2,> 4.52,C[C@@]1(c2cc(NC(=O)c3ccc(C#N)cn3)ccc2Cl)CCOC(N)=N1
3,> 4.52,C[C@@]1(c2cc(NC(=O)c3ncc(F)cc3F)ccc2F)CCOC(N)=N1
4,> 4.52,CC1=C[C@@](C)(c2cc(NC(=O)c3ncc(F)cc3F)ccc2F)N=C(N)O1
